What was measured:
KinIJ = target: T1, KinIJ (Streptomyces murayamaensis, UniProt A0A385LMJ2); assay: LC-MS detection of L-hydrazinosuccinate; format: biochemical; conditions: methyl or benzyl viologen, anaerobic
T1 construct: gene kinJ; heterodimer, His6 tag on one or both proteins, expressed aerobically in E. coli and purified anaerobically; KinI co-purified or added separately; with Ferredoxin KinI

[1] = target: FzmP, co-expressed with KinI (not stated (Streptomyces sp. S-149 or Streptomyces sp. XY332 cloned)); assay: SEC; anaerobic size exclusion chromatography of proteins expressed alone or co-expressed and purified
KinJ = target: T2, KinJ (Streptomyces murayamaensis, UniProt A0A385LMJ2); assay: EPR spectroscopy; format: binding; conditions: ferric enzyme; axial ligand of heme; no ferredoxin
T2 construct: monomeric when expressed alone; contains heme b

[2] = target: T3, KinJ from Streptomyces murayamaensis ATCC 21414 (tag placement not stated for the experiment) (Streptomyces murayamaensis ATCC 21414, UniProt A0A385LMJ2); assay: reciprocal His6 co-purification (pull-down) and anaerobic SEC of the co-expressed complex; co-expressed in E. coli and purified anaerobically as a complex
T3 chain: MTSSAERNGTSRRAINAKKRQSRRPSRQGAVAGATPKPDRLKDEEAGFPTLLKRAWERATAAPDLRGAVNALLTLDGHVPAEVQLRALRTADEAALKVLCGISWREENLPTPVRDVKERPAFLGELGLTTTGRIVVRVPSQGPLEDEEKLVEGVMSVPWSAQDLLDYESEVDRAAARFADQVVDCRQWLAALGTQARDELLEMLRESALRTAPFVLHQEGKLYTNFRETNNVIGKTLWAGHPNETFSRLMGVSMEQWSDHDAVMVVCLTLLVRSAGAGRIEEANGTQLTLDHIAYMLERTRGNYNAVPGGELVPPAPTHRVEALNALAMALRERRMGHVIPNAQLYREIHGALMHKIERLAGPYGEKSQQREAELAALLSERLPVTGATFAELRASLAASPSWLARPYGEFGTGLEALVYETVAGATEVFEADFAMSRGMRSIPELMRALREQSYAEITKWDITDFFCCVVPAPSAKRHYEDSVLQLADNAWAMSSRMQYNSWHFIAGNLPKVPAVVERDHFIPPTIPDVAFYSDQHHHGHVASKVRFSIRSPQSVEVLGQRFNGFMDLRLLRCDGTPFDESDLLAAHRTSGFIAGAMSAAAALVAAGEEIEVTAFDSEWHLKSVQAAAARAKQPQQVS

Molecule: N[C@@H](CC(=O)O)C(=O)O [L-aspartate]
- LC-MS detection of L-hydrazinosuccinate (KinIJ; NaNO2, sodium dithionite): indicating the formation of an N–N bond-containing product from L-Asp and NO2^–

Molecule: FzmP, co-expressed with KinI (enzyme)
- stoichiometry N [1]: 2

Molecule: O=NO [NO2^–]
- EPR spectroscopy (KinJ): addition of NO2^– (a strong field ligand) was associated with the formation of a 6-coordinate rhombic
- LC-MS detection of L-hydrazinosuccinate (KinIJ; L-aspartate, sodium dithionite, 15N-labelled nitrite also used): indicating the formation of an N–N bond-containing product from L-Asp and NO2^–

B1: KinI (ferredoxin; tag placement not stated for the experiment) (protein)
chain: MPTNTSDDSLDETVEGSVSGRDKLIAERTRSETWKKPPRRIERAECITCDTCLRACPPEFNAIFDNGLDVVIIPELCSGCPKCVLECPVDCIYVDEDWTPTTDEMWKHIGLTAEGVS
- binding result [2]: binds

Reference: paper doi:10.1101/2025.05.27.656397, “A new heme enzyme family forms hydrazine groups in diverse biosynthetic pathways” (bioRxiv, 2025)
